Data on two compounds can be found in patent US20090258069A1, “Delivery of LFA-1 antagonists to the gastrointestinal system” (priority 2008, published 2009).

Test [1] deals with human mononuclear cells (PBMC) stimulated with staphylococcal enterotoxin B (SEB). Briefly: cells. The class given is cell-based.
A further test addresses T1, LFA-1 (Homo sapiens, UniProt P20701).
T1 construct: greater than 90% occupancy of LFA-1 with efalizumab led to a greater than 50% clinical improvement in PASI score in a clinical trial; host or cells: leukocytes of psoriasis patients (in vivo)
The settings on record: at greater than 90% occupancy of LFA-1; cited from earlier work.

Read-outs that look alike come from different tables or passages of the source. A value given as a limit tells only on which side of the number the result lay.

T1 sequence (P20701 26-1170): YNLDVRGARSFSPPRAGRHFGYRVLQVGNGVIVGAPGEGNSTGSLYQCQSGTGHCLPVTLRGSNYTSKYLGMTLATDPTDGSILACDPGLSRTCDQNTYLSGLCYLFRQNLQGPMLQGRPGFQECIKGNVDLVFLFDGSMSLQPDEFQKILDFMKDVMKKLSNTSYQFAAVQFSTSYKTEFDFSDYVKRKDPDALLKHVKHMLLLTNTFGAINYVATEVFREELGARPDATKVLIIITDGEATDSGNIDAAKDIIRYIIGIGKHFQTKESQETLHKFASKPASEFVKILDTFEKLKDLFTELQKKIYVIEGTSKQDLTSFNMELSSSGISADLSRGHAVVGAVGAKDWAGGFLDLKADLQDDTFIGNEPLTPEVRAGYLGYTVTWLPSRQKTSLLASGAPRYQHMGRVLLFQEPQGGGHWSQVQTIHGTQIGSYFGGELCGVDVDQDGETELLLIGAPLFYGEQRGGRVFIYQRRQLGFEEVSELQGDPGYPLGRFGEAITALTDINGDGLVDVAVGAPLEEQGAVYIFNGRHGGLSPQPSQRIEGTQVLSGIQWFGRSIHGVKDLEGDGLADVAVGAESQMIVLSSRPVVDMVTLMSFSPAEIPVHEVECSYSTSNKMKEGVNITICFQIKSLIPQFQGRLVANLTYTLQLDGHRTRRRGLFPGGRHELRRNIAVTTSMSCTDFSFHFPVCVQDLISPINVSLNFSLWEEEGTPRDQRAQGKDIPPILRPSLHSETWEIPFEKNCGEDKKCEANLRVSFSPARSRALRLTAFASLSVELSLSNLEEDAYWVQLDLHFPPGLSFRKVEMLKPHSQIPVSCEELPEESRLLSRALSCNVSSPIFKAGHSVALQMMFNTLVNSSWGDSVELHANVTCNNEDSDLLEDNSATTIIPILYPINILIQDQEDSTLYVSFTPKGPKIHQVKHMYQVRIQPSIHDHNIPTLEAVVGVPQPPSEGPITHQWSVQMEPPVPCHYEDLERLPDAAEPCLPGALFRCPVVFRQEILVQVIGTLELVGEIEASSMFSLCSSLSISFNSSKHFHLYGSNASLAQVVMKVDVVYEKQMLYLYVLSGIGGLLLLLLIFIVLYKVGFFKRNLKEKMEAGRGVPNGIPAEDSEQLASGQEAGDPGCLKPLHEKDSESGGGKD
T1 sequence (P05107 23-769 partner): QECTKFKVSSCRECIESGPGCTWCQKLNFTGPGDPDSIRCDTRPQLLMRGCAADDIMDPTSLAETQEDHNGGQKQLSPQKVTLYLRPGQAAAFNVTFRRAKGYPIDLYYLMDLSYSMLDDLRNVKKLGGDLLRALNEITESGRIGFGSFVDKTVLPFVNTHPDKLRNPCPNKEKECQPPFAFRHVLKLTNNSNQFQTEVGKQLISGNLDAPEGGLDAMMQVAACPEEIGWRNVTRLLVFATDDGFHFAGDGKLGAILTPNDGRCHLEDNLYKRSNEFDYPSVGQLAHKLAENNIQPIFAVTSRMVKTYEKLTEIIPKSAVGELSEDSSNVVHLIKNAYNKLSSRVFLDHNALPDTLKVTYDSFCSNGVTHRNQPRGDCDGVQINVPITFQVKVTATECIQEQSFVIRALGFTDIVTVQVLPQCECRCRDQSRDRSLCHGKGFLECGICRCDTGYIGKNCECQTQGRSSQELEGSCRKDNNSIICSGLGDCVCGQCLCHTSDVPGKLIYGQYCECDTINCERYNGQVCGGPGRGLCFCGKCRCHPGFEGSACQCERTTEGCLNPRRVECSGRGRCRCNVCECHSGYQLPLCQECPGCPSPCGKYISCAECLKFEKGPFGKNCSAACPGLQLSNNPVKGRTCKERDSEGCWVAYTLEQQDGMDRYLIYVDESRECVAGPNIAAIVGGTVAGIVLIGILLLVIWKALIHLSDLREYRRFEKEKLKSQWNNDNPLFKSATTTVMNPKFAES

For `O=C(NC(Cc1cc(=O)[nH]c2ccccc12)C(=O)O)c1ccc(Cl)cc1` (centres unmarked) [Rebamipide, reference compound], the EC50 in test [1] (read-out: EC50 Cytokine Release GM-CSF), in test [1] (read-out: EC50 Cytokine Release IFNγ), in test [1] (read-out: EC50 Cytokine Release IL-1α), in test [1] (read-out: EC50 Cytokine Release IL-1β), in test [1] (read-out: EC50 Cytokine Release IL-2) and in test [1] (read-out: EC50 Cytokine Release IL-3) was greater than 1 mM in each case. In addition, the EC50 in test [1] (read-out: EC50 Cytokine Release IL-4), in test [1] (read-out: EC50 Cytokine Release IL-5), in test [1] (read-out: EC50 Cytokine Release IL-6), in test [1] (read-out: EC50 Cytokine Release IL-10), in test [1] (read-out: EC50 Cytokine Release IL-12p40) and in test [1] (read-out: EC50 Cytokine Release IL-13) was greater than 1 mM in each case. For the same compound, the half-maximal effective concentration (EC50) in test [1] (read-out: EC50 Cytokine Release IP-10), in test [1] (read-out: EC50 Cytokine Release MCP-1), in test [1] (read-out: EC50 Cytokine Release MIP-1α) and in test [1] (read-out: EC50 Cytokine Release TNF-α) was greater than 1 mM each time.
Take “efalizumab: antibody binding LFA-1, clinical trial in plaque psoriasis”: the “clinical improvement in PASI score” value in the test with LFA-1 was “greater than 50%”.
